Experiments:
male BALB/c mice = conditions: mouse, in vivo, po, 100 mg/kg/day
Protocol: Repeated dose toxicity study was performed at Laboratory Animal House (LAH), Toxicology, Sai Life Science Ltd., Chrysalis Enclave, Phase II, Hinjewadi, Pune-411 057, Maharashtra, India.

[1] = Plasma, brain and CNS concentrations after repeated oral dosing; conditions: mice, 100 mg/kg/day via daily gavage
[2] = male, BALB/c, mouse, in vivo, po
[3] = test system: UMNs from prpTDP-43^A315T-UeGFP mice; test: Sholl analysis of arborization and branching, UMNs with TDP-43 pathology; type: cell-based, mouse; conditions: prpTDP-43^A315T-UeGFP UMNs; data not shown
Protocol: (§1) UMN Cultures. P3 motor cortices isolated from WT-UeGFP, hSOD1^G93A-UeGFP, and prpTDP-43^A315T-UeGFP mice were dissected, dissociated, and cultured on glass coverslips (4×10^4 cells per 18 mm diameter coverslip, Fisherbrand) coated with poly-L-lysine (10 mg/mL, Sigma) as previously described (Ozdinler and Macklis 2006). Neurons were cultured in SFM [0.034 mg/L BSA, 1 mM L-glutamine, 25 U/mL penicillin, 0.025 mg/mL streptomycin, 35 mM glucose, and 0.5% B27 in Neurobasal-A medium (Life Technologies)] in a humidified tissue culture incubator in the presence of 5% CO2 at 37° C. […] Cultures were fixed after 3 days in vitro (DIV).
(§2) UMNs were quantitatively analyzed for differences in neurite length and arborization complexity. Images taken with a 20× objective on the epifluorescent microscope (Nikon) were analyzed using the Neurite Tracer plugin from FIJI (NIH), which enables semi-autonomous tracing to measure the length of the axon. The aggregation of the neurite tracings centered at the soma generates a profile available for Sholl analysis.
Statistical analysis. All analyses were performed using Prism software (GraphPad Software). The D'Agostino and Pearson normality test was performed on all datasets. Statistical differences between more than two groups were determined by one-way ANOVA followed by the Tukey's post-hoc multiple-comparison test. […]

[4] = test system: UMNs of hSOD1^G93A-UeGFP mice; test: Axon outgrowth of UMNs diseased by mSOD1 toxicity in dissociated motor cortex culture; type: cell-based, mouse; conditions: 3 days in vitro; for average length of UMN axons: SFM control 227.62±19.63 μm, WT 321.41±17.54 μm
Description: (§3) Mice. All animal procedures were approved by the Northwestern University Animal Care and Use committee and comply with the standards of the National Institutes of Health. All mice were on C57BL/6 background. Transgenic hemizygous males expressing a high copy number of the human SOD1 gene with a G93A mutation (B6SJL-Tg (SOD1*G93A)1Gur/J; The Jackson Laboratory) were bred to hemizygous UCHL1-eGFP females to generate hSOD1^G93A-UeGFP and WT-UeGFP (control) mice. UCHL1-eGFP mice were generated in the Ozdinler Lab; they are reporter lines for UMNs (Yasvoina, Genc et al. 2013), and are now available at Jackson Laboratory (stock no. 022476). Hemizygous UCHL1-eGFP females were bred to hemizygous prpTDP-43^A315T mice (procured from Jackson Laboratory, stock no. 010700) to generate prpTDP-43^A315T-UeGFP mice. prpTDP-43^A315T mice were supplied with gel diet (DietGel 76A, ClearH2O, ME, USA) to eliminate gastrointestinal (GI) complications. Transgenic mice were identified by PCR amplification of DNA extracted from their tail, as previously described (Gurney, Pu et al. 1994, Wegorzewska, Bell et al. 2009, Yasvoina, Genc et al. 2013, Gautam, Jara et al. 2019). Mice with different genotypes are abbreviated in the figures as follows: WT-UeGFP (control) mice=G mice; hSOD1^G93A-UeGFP mice=GS mice; prpTDP-43^A315T-UeGFP mice=GTDP mice.
(§4) Compound preparation and delivery. NU-9 was prepared as 100 μM stock in dimethylsulfoxide (DMSO) and added to serum free medium (SFM) at a final concentration of 400 nM (4 μl per 1 ml SFM). […] Edaravone (Sigma-Aldrich) was prepared as 1 mM stock in DMSO and added at a final concentration of 1 μM in SFM (1 μl per 1 ml SFM). Amylyx AMX-0035 compound was a combination of 1 mM of 4-Phenylbutyric acid (4-PBA, Sigma Aldrich)+100 μM Tauroursodeoxycholic Acid, Sodium Salt (TUDCA, Millipore Sigma) added into SFM (4-PBA was prepared as a 21.5 mM stock in water and added at 46.5 μl per 1 ml SFM, TUDCA was prepared as 20 mM stock in water, and added at 5 μl per 1 ml SFM).
(§5) UMN Cultures. P3 motor cortices isolated from WT-UeGFP, hSOD1^G93A-UeGFP, and prpTDP-43^A315T-UeGFP mice were dissected, dissociated, and cultured on glass coverslips (4×10^4 cells per 18 mm diameter coverslip, Fisherbrand) coated with poly-L-lysine (10 mg/mL, Sigma) as previously described (Ozdinler and Macklis 2006). […]
as §2, with “The aggregation of the neurite tracings centered at the soma generates a profile available for Sholl analysis.” left out

in vivo = conditions: BALB/c, mouse, 100 mg/kg/day
[5] = test system: UMNs of hSOD1^G93A-UeGFP mice; test: Sholl analysis of arborization and branching, UMNs diseased by mSOD1 toxicity; type: cell-based, mouse; conditions: 3 days in culture, data not shown
Protocol: as §1, §2

[6] = test system: UMNs from prpTDP-43^A315T-UeGFP mice; type: cell-based; conditions: prpTDP-43^A315T-UeGFP UMNs, 3 days in vitro; for average length of the axons of UMNs: SFM control 199.52±21.15 μm, WT 321.41±17.54 μm
Description: as §3, §4, §5
as §2, with “The aggregation of the neurite tracings centered at the soma generates a profile available for Sholl analysis.” left out

[7] = literature value; cited from earlier work
[8] = test system: misfolded SOD1 (mSOD1) mouse model; conditions: literature (Snow 2003, Scott 2008); cited from earlier work
[9] = NU-9 400 nM, riluzole 500 nM, edaravone 1 μM
[10] = riluzole 500 nM, edaravone 1 μM

C[C@H](Oc1cc(C(F)(F)F)cc(C(F)(F)F)c1)C1CC(=O)CC(=O)C1 [NU-9, (S)-5-(1-(3,5-bis(trifluoromethyl)phenoxy)ethyl)cyclohexane-1,3-dione]
mortality (male BALB/c mice): did not result in mortality | dose (concentration) detected in CNS [1]: 400 nM | time till which plasma concentrations were quantifiable [2]: up to 24 h | time up to which brain concentrations were quantifiable [2]: up to 24 h | neuronal arborization and branching (Sholl analyses) [3]: enhanced neuronal arborization and branching | percent of UMNs with an axon within the range of 300-399 μm ([4]; NU-9 400 nM): about 44.4% | average length of UMN axons [4, 9]: 346.76±12.32 μm | concentration at 7 day (in vivo; CNS, oral): 400 nM | Tmax (in vivo; male, plasma, po): 30 min | UMN arborization (Sholl measurements) [5]: more complex and arborized UMNs | percentage of UMNs with axons longer than 300 μm ([6]; NU-9 400 nM, vehicle 26%): 88% | average length of the axons of UMNs [6, 9]: 397.73±14.09 μm

CC1=NN(c2ccccc2)C(=O)C1 [edaravone, 2,4-Dihydro-5-methyl-2-phenyl-3H-pyrazol-3-one, reference compound]
concentration reported to be present in the CNS after the optimum dose used in clinical trials [7]: 1000 nM | average length of UMN axons [4, 9]: 289.58±22.71 μm | overall axon outgrowth (distribution of longest axons) [4, 10]: improved overall axon outgrowth | UMN arborization (Sholl measurements) [5]: improved UMN arborization, but to a lesser extent | average length of the axons of UMNs [6, 9]: 282.57±32.39 μm | percentage of UMNs with axons in the range of 200-399 μm [6, 10]: 62%

Nc1nc2ccc(OC(F)(F)F)cc2s1 [riluzole, 2-Amino-6-(trifluoromethoxy)benzothiazole]
longevity of the mSOD1 mouse model [8]: failed to improve the longevity

From US20240398727A1, “(S)-5-(1-(3,5-BIS(TRIFLUOROMETHYL)PHENOXY)ETHYL)CYCLOHEXANE-1,3-DIONE (NU-9) IMPROVES THE HEALTH OF DISEASED UPPER MOTOR NEURONS” (Northwestern University, priority 2021, published 2024)
